Patent EP2921179A1, “Micellar nanoparticles containing antitumoral glycosides” (Fundación Centro Nacional de Investigaciones …, priority 2014, dated 2015)
Where two headings read alike, the source gives them in different places.

Tests used:
[1] = tested on: A549 cell line; test: MTT assay, inhibition of A549 tumor cell proliferation; type: cell-based, Human; settings: 48 h treatment, read-out: ID50 (µM) A549
Procedure: Human A549 cell line and C6 rat glioma cell line were maintained in Dulbecco's modified Eagle's medium (DMEM) complete medium (Sigma-Aldrich, St. Louis, MO), supplemented with fetal bovine serum (FBS, 10%; GLinus, Madrid, Spain), glutamine (2 mM), penicillin (50 IU/mL), and streptomycin ([…]), at 37 °C in a 5% CO2 humidified atmosphere. Exponentially growing cells were seeded on 96-well plates (Beckton Dickinson, Le Pont de Claix, France), in DMEM complete medium, at a density of 1.5 x 10^4 cells/well for C6 cell and 5 x 10^3 cells/well for A549 cells respectively. The cells were allowed to attach with 5% of CO2 at 37°C for overnight, and then, to serum starve the cells, the medium was replaced by 100 µL of fresh DMEM without FBS and maintained overnight. Stock solutions in EtOH of the glycoside derivatives of formula (I) of Example 2 (50 mM) or stock solutions in PBS of the micelles of Example 3 were finally dissolved in DMEM complete medium for the treatments. The cells were treated with serial dilutions of glycoside derivatives of formula (I) of Example 2 or micelles of Example 3 for 48 h. For the experiments with micelles of Example 3, some 96-well plates were placed over a MagnetoFACTOR-96 device (Chemicell) to produce a strong magnetic field to each well and increase the proximity of the nanoparticles to the cells. Also, iron oxide nanoparticles coated with azelaic acid were tested (Azelaic-NP, obtained as described in Chemistry - A European Journal, 2008, 14 (30), 9126-9130) Cell proliferation was evaluated with an MTT assay (Sigma-Aldrich), based on the conversion of the water-soluble MTT into an insoluble formazan. Briefly, after 48 h of compound treatment, the medium was replaced by 100 µL of fresh DMEM without phenol red containing MTT (5 mg/mL) solution, and cells were incubated for additional 3 h at 37 °C with 5% CO2. After this time, the medium was removed, the precipitated formazan was dissolved in 100 µL of DMSO, and the solution optical density was measured at 595 nm in Spectramax Plus equipment (Molecular Devices Corporation). […]

[2] = tested on: C6 rat glioma cell line; test: MTT assay, inhibition of C6 tumor cell proliferation; type: cell-based; settings: for IC50: free glycoside derivative, 48 h treatment, MTT, read-out: ID50 (µM) C6
Procedure: Human A549 cell line and C6 rat glioma cell line were maintained in Dulbecco's modified Eagle's medium (DMEM) complete medium (Sigma-Aldrich, St. Louis, MO), supplemented with fetal bovine serum (FBS, 10%; GLinus, Madrid, Spain), glutamine (2 mM), penicillin (50 IU/mL), and streptomycin ([…]), at 37 °C in a 5% CO2 humidified atmosphere. Exponentially growing cells were seeded on 96-well plates (Beckton Dickinson, Le Pont de Claix, France), in DMEM complete medium, at a density of 1.5 x 10^4 cells/well for C6 cell and 5 x 10^3 cells/well for A549 cells respectively. The cells were allowed to attach with 5% of CO2 at 37°C for overnight, and then, to serum starve the cells, the medium was replaced by 100 µL of fresh DMEM without FBS and maintained overnight. Stock solutions in EtOH of the glycoside derivatives of formula (I) of Example 2 (50 mM) or stock solutions in PBS of the micelles of Example 3 were finally dissolved in DMEM complete medium for the treatments. The cells were treated with serial dilutions of glycoside derivatives of formula (I) of Example 2 or micelles of Example 3 for 48 h. For the experiments with micelles of Example 3, some 96-well plates were placed over a MagnetoFACTOR-96 device (Chemicell) to produce a strong magnetic field to each well and increase the proximity of the nanoparticles to the cells. Also, iron oxide nanoparticles coated with azelaic acid were tested (Azelaic-NP, obtained as described in Chemistry - A European Journal, 2008, 14 (30), 9126-9130) Cell proliferation was evaluated with an MTT assay (Sigma-Aldrich), based on the conversion of the water-soluble MTT into an insoluble formazan. Briefly, after 48 h of compound treatment, the medium was replaced by 100 µL of fresh DMEM without phenol red containing MTT (5 mg/mL) solution, and cells were incubated for additional 3 h at 37 °C with 5% CO2. After this time, the medium was removed, the precipitated formazan was dissolved in 100 µL of DMSO, and the solution optical density was measured at 595 nm in Spectramax Plus equipment (Molecular Devices Corporation). Absorption values were referred to positive proliferation controls (cells cultured in DMEM complete medium) and negative proliferation controls cells cultured in DMEM without FBS). Inhibition was expressed as an ID50 value, the compound concentration that reduced maximal proliferation by 50%, and the results are shown in Table 3. Table 3. Biological activity of glycoside derivatives of formula (I) and micelles comprising said glycoside derivatives.

[3] = Solubility / stability in water; type: physicochemical; settings: pure water, observed by eye
Text: For GC-22 and TFA-GC22, the glycosides alone are not soluble in pure water, while the micelles GC-22-NPs and TFA-GC22-NPs are stable in the aqueous phase. Precipitate of GC-22 and TFA-GC22 can be observed by eye straight away in a pure water solution and no re-dispersion is produced when the aqueous micellar solution is mixed with an organic solvent selected from the group consisting of dichloromethane, chloroform, hexane, heptane, toluene, in a volume proportion of 1:1.

[4] = Homo sapiens, A549, free glycoside derivative

| SMILES | IC50 ([1]; free glycoside derivative) [µM] | IC50 [2] [µM] | inhibition of proliferation of C6 tumor cells ([2]; result in words) | solubility in water [3] | IC50 [1, 4] [µM] | IC50 ([2]; Rattus norvegicus, Glioma cell) [µM] |
| --- | --- | --- | --- | --- | --- | --- |
| CCCCCCCC/C=C\CCCCCCCCO[C@H]1O[C@H](COS(=O)(=O)[O-])[C@@H](O)[C@H](O)[C@H]1NC(C)=O.[K+] [IG20, Oleyl 2-acetamido-2-deoxy-6-O-(oxosulfonyl)-α-D-glucopyranoside potassium salt] | 97 | > 100 | did not show inhibition | soluble in water |  |  |
| CCCCCCCC/C=C\CCCCCCCCO[C@H]1O[C@H](CO)[C@@H](O)[C@H](O)[C@H]1NC(=O)C(F)(F)F [TFAGC22, Oleyl2-deoxy-2-trifluoroacetamido-α-D-glucopyranoside] |  |  |  | not soluble | 8.6 | 14.2 ± 0.3 |
| CCCCCCCC/C=C\CCCCCCCCO[C@H]1O[C@H](CO)[C@@H](O)[C@H](O)[C@H]1NC(C)=O [GC22, Oleyl 2-acetamido-2-deoxy-α-D-glucopyranoside] |  |  |  | not soluble | 10 | 15.5 ± 0.3 |
